The assay has as its target T1, Human Polymorphonuclear Leukocyte Elastase (Homo sapiens, UniProt P08246).
T1 construct: Crude extract of human polymorphonuclear leukocytes (PMN) containing elastase activity; from tissue; host or cells: human polymorphonuclear leukocytes (crude extract)
T1 sequence (P08246 30-267): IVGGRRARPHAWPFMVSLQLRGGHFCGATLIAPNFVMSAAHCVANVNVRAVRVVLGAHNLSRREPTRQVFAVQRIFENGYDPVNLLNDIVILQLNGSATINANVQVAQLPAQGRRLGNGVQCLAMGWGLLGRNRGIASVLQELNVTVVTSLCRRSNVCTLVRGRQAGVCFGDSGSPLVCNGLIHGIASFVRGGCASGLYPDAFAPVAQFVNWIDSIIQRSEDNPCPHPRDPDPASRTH
The assay is described as follows: Enzyme assay for inhibition of human polymorphonuclear leukocyte elastase via hydrolysis of Boc-AAPAN or Boc-AAPVN. Format: biochemical. Particulars: pH 7.5, second order rate constant for inactivation of the enzyme, expressed to the nearest thousand, read-out: Kobs/[I]. As for the experimental part:
Enzyme Assays for the Inhibition of Human Polymorphonuclear Leukocyte Elastase Via Hydrolysis of N-t-Boc-alanyl-alanyl-prolylalanine-p-nitroanilide (Boc-AAPAN) or N-t-Boc-alanyl-prolylvaline-p-nitro-anilide (Boc-AAPVN) Reagent:
0.05M TES (N-tris[hydroxymethyl]methyl-2-mino-ethanesulfonic acid) Buffer, pH 7.5.
0.2 mM Boc-AAPAN or Boc-AAPVN.
To prepare substrate, the solid was first dissolved in 10.0 ml DMSO. Buffer at pH 7.5 was then added to a final volume of 100 ml.
Crude extract of human polymorphonuclear leukocytes (PMN) containing elastase activity.
Inhibitors (azetidinones) to be tested dissolved in DMSO just before use.
To 1.0 ml of 0.2 mM Boc-AAPAN in a cuvette, 0.01-0.1 ml of DMSO with or without inhibitor was added. After mixing, a measurement was taken at 410 mµ to detect any spontaneous hydrolysis due to presence of test compound. 0.05 Milliliters of PMN extract was then added and the ΔOD/min at 410 mµ was measured and recorded. Beckman model 35 spectrophotometer was used.
Results were expressed to the nearest thousand ^kobs/I which is the second order rate constant in per mole per second for inactivation of the enzyme.
The elastase activity in the crude PMN extract may vary from one preparation to another. A control of each new batch is run, and the volume added in the assay procedure is adjusted according to activity.

With `CCC[C@@H](NC(=O)N1C(=O)C(CC)(CC)[C@@H]1Oc1ccc(C(=O)OCC(=O)N(C)C)cc1)c1ccc(C)cc1` (relative stereo) [Compound 6, 2-(dimethylamino)-2-oxoethyl, (S-(R*,S*))-4-((3,3-Diethyl-1-(((1-(4-methyl-phenyl)butyl)amino)carbonyl)-4-oxo-2-azetidinyl)oxy)-benzoate], the kinact/KI turned out to be 3e+06 M⁻¹ s⁻¹. The same measure for `CCC[C@@H](NC(=O)N1C(=O)C(CC)(CC)[C@@H]1Oc1ccc(C(=O)OCCN(C)C(C)=O)cc1)c1ccc(C)cc1` (relative stereo) [Compound 7, 2-(N-methylacetamido)ethyl. {2-(R*,S*)}-4-{{3,3-Diethyl-1-{{{1-(4-methyl-phenyl)butyl}amino}carbonyl}-4-oxo-2-azetidinyl}oxy}-benzoate]: 1.56e+06 M⁻¹ s⁻¹; for `CCC[C@@H](NC(=O)N1C(=O)C(CC)(CC)[C@@H]1Oc1ccc(C(=O)OCC(=O)N2CCC[C@H]2C(=O)O)cc1)c1ccc(C)cc1` (relative stereo) [Compound 9, (S(R*,S*))-1-(((4-((3,3-diethyl-1-(((1-(4-methylphenyl)butyl)amino)carbonyl)-4-oxo-2-azetidinyl)oxy)benzoyl)oxy)acetyl) L-proline]: 1.57e+06 M⁻¹ s⁻¹; for `CCC[C@@H](NC(=O)N1C(=O)C(CC)(CC)[C@@H]1Oc1ccc(C(=O)O[C@@H](C)C(=O)OCc2ccccc2)cc1)c1ccc(C)cc1` (relative stereo) [Compound 10, 1-Methyl-2-oxo-2-(phenylmethoxy)ethyl(2S-(1(S*),R*,(R)))-4-((3,3-diethyl-1-(((1-(4-methylphenyl)butyl)amino)carbonyl)-4-oxo-2-azetidinyl)oxy) benzoate]: 2.89e+06 M⁻¹ s⁻¹. For the compound `CCC[C@@H](NC(=O)N1C(=O)C(CC)(CC)[C@@H]1Oc1ccc(C(=O)N2CCN(C3CC3)CC2)cc1)c1ccc(C)cc1` (relative stereo) [Compound 256, [S(R*,S*)]-2-[4-[[(4-Cyclopropyl)piperazin-1-yl]carbonyl]phenoxy]-((3,3-diethyl-N-[1-(4-methylphenyl)butyl]-4-oxo-1-azetidinecarboxamide], the kinact/KI was 3.59e+06 M⁻¹ s⁻¹. With `CCC[C@@H](NC(=O)N1C(=O)C(CC)(CC)[C@@H]1Oc1cc(C)c(C(=O)OCCN(C)C)c(C)c1)c1ccc(C)cc1` (relative stereo) [Compound 304, 2-(dimethylamino)ethyl [S,(R*,S*)]-4-[[3,3-diethyl-1-[[[1-(4-methylphenyl)butyl]amino]carbonyl]-4-oxo-2-azetidinyl]oxy]-2,6-dimethyl-benzoate], the kinact/KI was found to be 563000 M⁻¹ s⁻¹. Regarding `CCCC(NC(=O)N1C(=O)C(CC)(CC)C1Oc1ccc(C(=O)OCCN(C)C)cc1)c1ccc(C)cc1` (stereo not drawn) [Compound 1, 2-(dimethylamino)ethyl (S-(R*,S*))-4-((3,3-diethyl-1-(((1-(4-methyl-phenyl)butyl)amino)carbonyl)-4-oxo-2-azetidinyl)oxy)benzoate], the kinact/KI was 1.57e+06 M⁻¹ s⁻¹.

For the compound `CCCC(NC(=O)N1C(=O)C(CC)(CC)C1Oc1ccc(C(=O)OCC(=O)O)cc1)c1ccc(C)cc1` (stereo not drawn) [Compound 2, Carboxymethyl [S-(R*,S*)]4-((3,3-diethyl-1-(((1-(4-methyl-phenyl)butyl)amino)carbonyl)-4-oxo-2-azetidinyl)oxy)benzoate], the kinact/KI turned out to be 1.67e+06 M⁻¹ s⁻¹. The same measure for `CCCC(NC(=O)N1C(=O)C(CC)(CC)C1Oc1ccc(C(=O)OCC(=O)N(CCO)CCO)cc1)c1ccc(C)cc1` (stereo not drawn) [Compound 3, 2-(bis(2-hydroxyethyl)amino)-2-oxoethyl(S-(R*,S*))-4-((3,3-diethyl-1-(((1-(4-methyl-phenyl)butyl)amino)carbonyl)-4-oxo-2-azetidinyl)oxy) benzoate]: 3.43e+06 M⁻¹ s⁻¹. Next, `CCC[C@@H](NC(=O)N1C(=O)C(CC)(CC)[C@@H]1Oc1ccc(C(=O)OCC(=O)N(C)CC(N)=O)cc1)c1ccc(C)cc1` [Compound 4]: 4.29e+06 M⁻¹ s⁻¹; `CCC[C@@H](NC(=O)N1C(=O)C(CC)(CC)[C@@H]1Oc1ccc(C(=O)OCC(=O)NC(CO)(CO)CO)cc1)c1ccc(C)cc1` [Compound 5]: 4.45e+06 M⁻¹ s⁻¹.

These data come from EP0595557A1, “New substituted azetidinones as anti-inflammatory and antidegenerative agents” (MERCK & CO. INC., priority 1992, dated 1994).
